Measurements from publication PMC7859335, “Discovery of Diaryl Ether Substituted Tetrahydrophthalazinones as TbrPDEB1 Inhibitors Following Structure-Based Virtual Screening” (Frontiers in Chemistry, 2021).
Like-named read-outs stand apart in the source and are kept apart here.

What was measured:
TbrPDEB1 [1] = target: T1, TbrPDEB1 (Trypanosoma brucei, UniProt Q8WQX9); experiment: TbrPDEB1 catalytic domain phosphodiesterase activity assay (PDELight HTS cAMP kit); assay type: biochemical; conditions: for Ki: full dose-response, mean ± S.E.M.; for inhibition at 10 µM / TbrPDEB1 (% inh.): single point assay at 10 μM inhibitor; for inhibition at 10 µM: read-out: TbrPDEB1 (% inh.)
T1 construct: The TbrPDEB1 catalytic domain phosphodiesterase activity assays were conducted based on a method reported by Sijm et al
T1 sequence (Q8WQX9 565-918 limits assumed): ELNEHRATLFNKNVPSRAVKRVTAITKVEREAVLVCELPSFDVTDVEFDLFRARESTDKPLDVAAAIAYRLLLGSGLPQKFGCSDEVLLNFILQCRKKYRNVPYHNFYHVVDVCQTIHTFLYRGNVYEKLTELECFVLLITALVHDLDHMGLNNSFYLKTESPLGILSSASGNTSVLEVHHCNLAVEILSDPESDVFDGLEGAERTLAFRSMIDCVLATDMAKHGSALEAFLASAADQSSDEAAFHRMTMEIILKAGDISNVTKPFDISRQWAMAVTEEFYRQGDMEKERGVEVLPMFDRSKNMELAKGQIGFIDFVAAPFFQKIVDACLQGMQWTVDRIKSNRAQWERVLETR
Procedure: The TbrPDEB1 catalytic domain phosphodiesterase activity assays were conducted based on a method reported by Sijm et al. ([2019]) with minor adaptations (Sijm et al., [2019]). The PDELight™ HTS cAMP phosphodiesterase Kit (Lonza, Walkersville, USA) was performed at 25°C in non-binding, low volume 384-well plates (Corning, Kennebunk, ME, USA). […] Single concentration measurements were made at 10 μM inhibitor concentration (triplo measurements/assay, n = 2). Dose-response curves were made in the range 100 μM−10 pM (triplo measurements/assay, n = 3). Compounds were diluted in DMSO (final in-test concentration 1%). Inhibitor dilutions (2.5 μL) were transferred to the 384-well plates, 2.5 μL of PDE in stimulation buffer was added and mixed, 5 μL of cAMP (at 2 × Km up to 20 μM) added and the assay mixture was incubated for 20 min at 300 rpm. […] Then, 5 μL of Lonza Detection reagent (diluted to 80% with reaction buffer) was added and the reaction incubated for 10 min at 300 rpm. Luminescence was read with a Victor3 luminometer using a 0.1 s/well program.
The Ki values of the inhibitors analyzed are represented as the mean of at least three independent experiments with the associated standard error of the mean (S.E.M.).

[2] = system: T.b. brucei Squib-427 strain; experiment: Antitrypanosomal phenotypic cellular assay (resazurin); assay type: cell-based; conditions: Trypanosoma brucei; in vitro, 72 h, mean ± S.E.M.
Procedure: (§1) The phenotypic cellular assays were conducted as previously reported by Blaazer et al. (Blaazer et al., [2018]).
For the antitrypanosomal assay, T.b. brucei Squib-427 strain (suramin-sensitive) was cultured at 37°C and 5% CO2 in HMI-9 medium supplemented with 10% fetal calf serum (FCS). Approximately 1.5 × 10^4 trypomastigotes were added to each well and parasite growth was assessed after 72 h at 37°C by adding resazurin. Viability was assessed fluorimetrically 24 h after addition of resazurin. Fluorescence was measured (excitation 550 nm, emission 590 nm) and the results were expressed as percentage reduction in viability compared to control.

[3] = Cellular cytotoxicity assay (resazurin); assay type: cell-based; conditions: human
Procedure: as §1
For the cellular cytotoxicity assay, MRC-5 SV2 cells, originally from a human diploid lung cell line, were cultivated in MEM supplemented with L-glutamine (20 mM), 16.5 mM sodium hydrogen carbonate and 5% FCS. For the assay, 10^4 MRC-5 cells/well were seeded onto the test plates containing the pre-diluted sample and incubated at 37°C and 5% CO2 for 72 h. Cell viability was assessed fluorimetrically 4 h after the addition of resazurin. Fluorescence was measured (excitation 550 nm, emission 590 nm) and the results were expressed as percentage reduction in cell viability compared to controls.

TbrPDEB2 = system: TbrPDEB2; set-up: method as in earlier work; conditions: ref De Koning et al., 2012, Orrling et al., Veerman et al., 2016; cited from earlier work
[4] = system: T.b. brucei Squib-427 strain; set-up: method as in Blaazer et al. (2018); conditions: in vitro; ref Blaazer et al. (2018); cited from earlier work
hPDE4B1 = system: hPDE4B1; set-up: method as in Blaazer et al. (2018); conditions: ref Blaazer et al. (2018), cited from earlier work
MRC-5 SV2 cells = system: MRC-5 SV2 cells; set-up: method as in Blaazer et al. (2018); conditions: ref Blaazer et al. (2018); cited from earlier work
TbrPDEB1 [5] = target: T1, TbrPDEB1; conditions: ref Blaazer et al. (2018); cited from earlier work

Row | Ki (TbrPDEB1 [1]) | inhibition at 10 µM (TbrPDEB1 [1]) | Structure (SMILES) | IC50 [2] | CC50 at 72 h [3] | other results
1 | 0.6 ± 0.2 µM | ~50% | COC(=O)c1cnc(Oc2cc(C3=NN(C(C)C)C(=O)[C@@H]4CC=CC[C@H]34)ccc2OC)cn1 (relative stereo) [2d, Methyl 5-(5-(cis-3-isopropyl-4-oxo-3,4,4a,5,8,8a-hexahydrophthalazin-1-yl)-2-methoxyphenoxy)pyrazine-2-carboxylate] | 16 ± 10 µM | > 64 µM | –
2 | 1.3 ± 0.2 µM | ~50% | COc1ccc(C2=NN(C(C)C)C(=O)[C@H]3CC=CC[C@@H]23)cc1Oc1ccc(Cn2ccnc2)cn1 (relative stereo) [2h, cis-4-(3-((5-((1H-Imidazol-1-yl)methyl)pyridin-2-yl)oxy)-4-methoxyphenyl)-2-isopropyl-4a,5,8,8a-tetrahydrophthalazin-1(2H)-one] | 7.9 ± 8 µM | 31 ± 8 µM | –
3 | 0.8 ± 0.2 µM | ≥ 50% | COC(=O)c1ccc(Oc2cc(C3=NN(C(C)C)C(=O)[C@@H]4CC=CC[C@H]34)ccc2OC)nc1 (relative stereo) [3c, Methyl 6-(5-(cis-3-isopropyl-4-oxo-3,4,4a,5,8,8a-hexahydrophthalazin-1-yl)-2-methoxyphenoxy)nicotinate] | 7.9 ± 8 µM | > 64 µM | –
4 | 0.8 ± 0.2 µM | ≥ 50% | COc1ccc(C2=NN(C(C)C)C(=O)[C@@H]3CC=CC[C@H]23)cc1Oc1cccc(C(N)=O)n1 (relative stereo) [3l, 6-(5-(cis-3-Isopropyl-4-oxo-3,4,4a,5,8,8a-hexahydrophthalazin-1-yl)-2-methoxyphenoxy)picolinamide] | 16 ± 10 µM | > 64 µM | –
5 | 1.3 ± 0.3 µM | > 50% | CCCCNC(=O)c1cccc(Oc2cc(C3=NN(C(C)C)C(=O)[C@@H]4CC=CC[C@H]34)ccc2OC)n1 (relative stereo) [3s, N-Butyl-6-(5-(cis-3-isopropyl-4-oxo-3,4,4a,5,8,8a-hexahydrophthalazin-1-yl)-2-methoxyphenoxy)picolinamide] | > 64 µM | > 64 µM | –
6 | – | – | COc1ccc(C2=NN(C(C)C)C(=O)[C@@H]3CC=CC[C@H]23)cc1Oc1cc(C(=O)NCc2ccco2)ccn1 (relative stereo) [3u, N-(Furan-2-ylmethyl)-2-(5-(cis-3-isopropyl-4-oxo-3,4,4a,5,8,8a-hexahydrophthalazin-1-yl)-2-methoxyphenoxy)isonicotinamide] | – | – | TbrPDEB1 (% inh.) (TbrPDEB1 [1]): No inhibition
7 | – | – | COc1ccc(C2=NN(C(C)C)C(=O)[C@@H]3CC=CC[C@H]23)cc1Oc1ccc(C(=O)NCc2ccco2)cn1 (relative stereo) [3v, N-(Furan-2-ylmethyl)-6-(5-(cis-3-isopropyl-4-oxo-3,4,4a,5,8,8a-hexahydrophthalazin-1-yl)-2-methoxyphenoxy)nicotinamide] | – | – | TbrPDEB1 (% inh.) (TbrPDEB1 [1]): No inhibition
8 | 1 ± 0.2 µM | > 50% | COc1ccc(C2=NN(C(C)C)C(=O)[C@@H]3CC=CC[C@H]23)cc1Oc1cccc(C(=O)NCc2ccco2)n1 (relative stereo) [3w, N-(Furan-2-ylmethyl)-6-(5-(cis-3-isopropyl-4-oxo-3,4,4a,5,8,8a-hexahydrophthalazin-1-yl)-2-methoxyphenoxy)picolinamide] | 25 ± 20 µM | > 64 µM | –
9 | – | – | COc1ccc(C2=NN(C3CCCCCC3)C(=O)[C@@H]3CC=CC[C@H]23)cc1OCCCCOc1ccc(-c2nn[nH]n2)cc1 [NPD-001] | – | – | IC50 (TbrPDEB2): 0.0124 µM
10 | – | – | COc1ccc(C2=NN(C(C)C)C(=O)C3CC=CCC23)cc1-c1ccc(C(=O)NCC(N)=O)cc1 (stereo not drawn) [compound 1] | – | – | IC50 [4]: 6.3 µM; selectivity for TbrPDEB1 over hPDE4 (hPDE4B1; from Ki values): more than 10 fold; Ki (hPDE4B1; hPDE4B1 in Figure 1, read-out: hPDE4 Ki): 1.9 µM; CC50 (MRC-5 SV2 cells): 35 µM; Ki (TbrPDEB1 [5]): 0.1 µM
11 | – | – | Cc1ccc(C(=O)Nc2ccc(S(=O)(=O)O)c3cc(S(=O)(=O)O)cc(S(=O)(=O)O)c23)cc1NC(=O)c1cccc(NC(=O)Nc2cccc(C(=O)Nc3cc(C(=O)Nc4ccc(S(=O)(=O)O)c5cc(S(=O)(=O)O)cc(S(=O)(=O)O)c45)ccc3C)c2)c1 [suramin, reference compound] | 0.04 ± 0.02 µM | – | –
